pIC50: −log10 of the molar value. Read-outs that look alike come from different tables or passages of the source.
How the values were obtained:
CDK2/CycE1 = CDK2/CycE1 (Homo sapiens, UniProt P24941); experiment: In vitro kinase TR-FRET assay CDK2/CycE1; type: biochemical; conditions: enzyme 0.6 nM, ATP 82 μM, read-out: CDK2 cyclinE1 activity assay: IC50
Method: (§1) In vitro kinase TR-FRET assays: CDK2/CycA2, CDK2/CycE1, CDK1/cyclinB and GSK3β
(§2) The test compounds were prepared as 10 mM stock solution in 100% DMSO. The stock solution was then serially diluted 3-fold in 100% DMSO to 10 concentrations. 200 nL of each diluted compound solution was transferred to 384-well plate in duplicate. To each well, 5 uL of enzyme and ATP mixture solution containing enzyme CDK2/CycA2, CDK2/CycE1, CDK1/cyclinB, or GSK30 (final concentrations 3 nM, 0.6 nM, 0.3 nM, 0.6 nM, respectively) and ATP (final concentrations 27 μM, 82 μM, 56 μM, 7.6 μM, respectively) in the assay buffer (50 mM HEPES, pH7.5, 10 mM MgCl2, 1 mM DTT, 0.01% BSA, 0.01% Triton X-100). For negative control, 5 uL of assay buffer was added instead. The plate was incubated at room temperature for 10 min. 5 uL of peptide solution containing ULight-4E-BP1 peptide (final concentrations 50 nM) in the assay buffer was subsequently added into each well to initiate the reaction. By incubation at room temperature for 1 hour, 10 uL of 2 nM Eu-anti-phospho-4E BP1 antibody was then added for detection. After one hour incubation at room temperature, all samples were subjected to read the TR-FRET signal on Envision with excitation at 340 nm and emission fluorescence at 615 nm and 665 nm. IC50 values were then calculated by plotting dose-response curves and then using the XLfit application in Excel software.

GSK3β = GSK3β (Homo sapiens, UniProt P49841); experiment: In vitro kinase TR-FRET assay GSK3β; type: biochemical; conditions: enzyme 0.6 nM, ATP 7.6 μM
Chain of GSK3β (P49841 whole entry, species assumed): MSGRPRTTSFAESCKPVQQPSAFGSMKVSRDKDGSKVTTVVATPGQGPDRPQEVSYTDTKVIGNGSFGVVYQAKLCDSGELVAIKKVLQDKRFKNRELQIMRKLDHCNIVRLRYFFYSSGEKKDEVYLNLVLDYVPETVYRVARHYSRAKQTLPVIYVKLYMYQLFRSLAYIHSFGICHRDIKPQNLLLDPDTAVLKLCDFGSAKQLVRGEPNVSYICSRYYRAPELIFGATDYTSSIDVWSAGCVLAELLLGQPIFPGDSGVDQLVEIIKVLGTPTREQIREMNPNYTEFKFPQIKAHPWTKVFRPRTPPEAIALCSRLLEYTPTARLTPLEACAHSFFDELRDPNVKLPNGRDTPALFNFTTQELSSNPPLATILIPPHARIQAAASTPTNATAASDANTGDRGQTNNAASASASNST
Method: as §1, §2

OVCAR3 = experiment: Cell proliferation (CyQUANT) OVCAR3; type: cell-based; conditions: OVCAR3, 7 days, read-out: Anti-proliferation assay: IC50 (nM) [Cell Line: OVCAR3]
Method: (§3) Cancer cell lines, namely, OVCAR3, TOV21G were seeded onto 96 well cell culture plates at a density of 2500, 1000 or 3000 cells/well, respectively and cultured overnight. Cells treated with test compounds at 3-fold dose titration for 7 days at maximum final DMSO concentration of 0.01%. The CyQUANT® Cell Proliferation Assay, a highly sensitive fluorescence-based method for quantifying cells and assessing cell proliferation and cytotoxicity was employed, following manufacturer's procedure (ThermnoFisher, Cataloge #C35012). Plates were scanned with a laser-based Acumen Cellistra instrument by TTP LabTech at Ex/Em 480/520 nm. % Inhibition is calculated based on DMSO control wells on the same plate (ie, DMSO wells have 100% growth and 0% growth inhibition).

TOV21G = experiment: Cell proliferation (CyQUANT) TOV21G; type: cell-based; conditions: 7 days, read-out: Anti-proliferation assay: IC50 (nM) [Cell Line: TOV21G]
Method: as §3

CDK1/cyclinB = CDK1/cyclinB (Homo sapiens, UniProt P06493); experiment: In vitro kinase TR-FRET assay CDK1/cyclinB; type: biochemical; conditions: enzyme 0.3 nM, ATP 56 μM
Chain of CDK1/cyclinB (P06493 whole entry): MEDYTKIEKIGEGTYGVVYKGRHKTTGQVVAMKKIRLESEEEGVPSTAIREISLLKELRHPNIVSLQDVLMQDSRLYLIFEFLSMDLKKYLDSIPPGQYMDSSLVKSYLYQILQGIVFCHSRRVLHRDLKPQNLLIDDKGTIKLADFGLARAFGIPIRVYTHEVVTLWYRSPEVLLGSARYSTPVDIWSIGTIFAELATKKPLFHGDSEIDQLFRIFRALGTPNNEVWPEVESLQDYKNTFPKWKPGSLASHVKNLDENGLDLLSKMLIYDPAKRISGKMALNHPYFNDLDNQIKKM
Chain of CDK1/cyclinB (P14635 whole entry partner): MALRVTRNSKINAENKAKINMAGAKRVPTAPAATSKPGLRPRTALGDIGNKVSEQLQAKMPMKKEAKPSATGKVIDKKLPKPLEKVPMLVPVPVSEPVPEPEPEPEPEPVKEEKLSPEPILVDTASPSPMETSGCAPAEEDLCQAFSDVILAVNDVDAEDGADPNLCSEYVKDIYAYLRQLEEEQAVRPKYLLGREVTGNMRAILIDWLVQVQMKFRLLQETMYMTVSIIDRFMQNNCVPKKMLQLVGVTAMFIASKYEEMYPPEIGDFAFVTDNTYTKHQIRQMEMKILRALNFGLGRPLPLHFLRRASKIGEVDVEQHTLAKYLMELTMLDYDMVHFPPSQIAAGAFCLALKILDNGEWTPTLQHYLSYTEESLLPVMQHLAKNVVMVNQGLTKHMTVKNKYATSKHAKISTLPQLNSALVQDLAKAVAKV
Method: as §1, §2

CDK2/CycA2 = CDK2/CycA2 (Homo sapiens, UniProt P24941); experiment: In vitro kinase TR-FRET assay CDK2/CycA2; type: biochemical; conditions: enzyme 3 nM, ATP 27 μM, read-out: CDK2 cyclinA2 activity assay: IC50
Method: as §1, §2

Row | SMILES | pIC50 (CDK2/CycE1) | pIC50 (GSK3β) | IC50 (OVCAR3; Homo sapiens, OVCAR-3, 168 h) [nM] | IC50 (TOV21G; Homo sapiens, 168 h) [nM] | pIC50 (CDK1/cyclinB) | pIC50 (CDK2/CycA2) | IC50 (OVCAR3) [nM] | IC50 (TOV21G) [nM]
1 | CC(C)NC(=O)O[C@H]1C[C@@H](c2cc(Nc3nccc4c3CCS4(=O)=O)n[nH]2)C1 [Example 70, (1s,3s)-3-(3-((1,1-dioxido-2,3-dihydrothieno[3,2-c]pyridin-4-yl)amino)-1H-pyrazol-5-yl)cyclobutyl isopropylcarbamate] | > 7.30 | > 7.30 | ≤ 500 | ≤ 500 | > 7.30 | > 7.30 |  | 
2 | CC(C)NC(=O)O[C@@H]1CC[C@H](c2cc(Nc3ccc4c(c3)CS(=O)(=O)C4)n[nH]2)C1 [Example 22, (1R,3S)-3-(3-((2,2-dioxido-1,3-dihydrobenzo[c]thiophen-5-yl)amino)-1H-pyrazol-5-yl)cyclopentyl isopropylcarbamate] | > 7.30 | 6.00 to 6.30 | ≤ 500 | ≤ 500 | > 7.30 | > 7.30 |  | 
3 | CC(C)NC(=O)OC1CCC(c2cc(Nc3ccc4c(c3)CN(C)S4(=O)=O)[nH]n2)C1 (racemic) [Example 23, 3-(5-((2-methyl-1,1-dioxido-2,3-dihydrobenzo[d]isothiazol-5-yl)amino)-1H-pyrazol-3-yl)cyclopentyl isopropylcarbamate] | > 7.30 | 6.30 to 7.30 | ≤ 500 | ≥ 1000 | 6.30 to 7.30 | > 7.30 |  | 
4 | CC(C)NC(=O)O[C@@H]1CC[C@H](c2cc(Nc3ccc4c(c3)C(C)(C)CS4(=O)=O)n[nH]2)C1 [Example 21, (1R,3S)-3-{5-[(3,3-dimethyl-1,1-dioxo-2,3-dihydro-1λ^6-benzothiophen-5-yl)amino]-2H-pyrazol-3-yl}cyclopentyl (prop-2-ylamino)methanoate] | > 7.30 | 6.30 to 7.30 | 500 to 1000 | ≥ 1000 | 6.30 to 7.30 | > 7.30 |  | 
5 | CC(C)(C)NC(=O)O[C@@H]1CC[C@H](c2cc(Nc3nccc4c3CCS4(=O)=O)n[nH]2)C1 [Example 68, (1R,3S)-3-(3-((1,1-dioxido-2,3-dihydrothieno[3,2-c]pyridin-4-yl)amino)-1H-pyrazol-5-yl)cyclopentyl tert-butylcarbamate] | > 7.30 | 6.30 to 7.30 | ≤ 500 | ≤ 500 | > 7.30 | > 7.30 |  | 
6 | CC(C)NC(=O)O[C@@H]1CC[C@H](c2cc(Nc3ccc4c(c3)CCC4C#N)n[nH]2)C1 (stereo partly drawn) [Example 29, (1R,3S)-3-{5-[(1-cyano-2,3-dihydro-1H-inden-5-yl)amino]-2H-pyrazol-3-yl}cyclopentyl (prop-2-ylamino)methanoate] | > 7.30 | 6.30 to 7.30 | 500 to 1000 | ≥ 1000 | 6.30 to 7.30 | > 7.30 |  | 
7 | CC(C)NC(=O)O[C@@H]1CC[C@H](c2cc(Nc3ccc4c(n3)CCS4(=O)=O)n[nH]2)C1 [Example 55, (1R,3S)-3-(3-((1,1-dioxido-2,3-dihydrothieno[3,2-b]pyridin-5-yl)amino)-1H-pyrazol-5-yl)cyclopentyl isopropylcarbamate] | > 7.30 | 6.30 to 7.30 | ≤ 500 | ≥ 1000 | 6.30 to 7.30 | > 7.30 |  | 
8 | CC(C)NC(=O)O[C@@H]1CC[C@H](c2cc(Nc3ccc(F)c4c3CCS4(=O)=O)n[nH]2)C1 [Example 50, (1R,3S)-3-{5-[(7-fluoro-1,1-dioxo-2,3-dihydro-1λ^6-benzothiophen-4-yl)amino]-2H-pyrazol-3-yl}cyclopentyl (prop-2-ylamino)methanoate] | > 7.30 | 6.30 to 7.30 | ≤ 500 | ≤ 500 | 6.30 to 7.30 | > 7.30 |  | 
9 | CC(C)NC(=O)O[C@@H]1CC[C@H](c2cc(Nc3cccc4c3CS(=O)(=O)CC4O)[nH]n2)C1 (stereo partly drawn) [Example 62, (1R,3S)-3-(5-((4-hydroxy-2,2-dioxidoisothiochroman-8-yl)amino)-1H-pyrazol-3-yl)cyclopentyl isopropylcarbamate] | > 7.30 | < 6.00 | ≤ 500 | ≥ 1000 | 6.30 to 7.30 | > 7.30 |  | 
10 | CC(C)NC(=O)O[C@@H]1CC[C@H](c2cc(Nc3ccc4c(c3)S(=O)(=O)NC4)n[nH]2)C1 [Example 17, (1R,3S)-3-(3-((1,1-dioxido-2,3-dihydrobenzo[d]isothiazol-6-yl)amino)-1H-pyrazol-5-yl)cyclopentyl isopropylcarbamate] | > 7.30 | 6.30 to 7.30 | ≤ 500 | ≤ 500 | > 7.30 | > 7.30 |  | 
11 | CC(C)NC(=O)O[C@@H]1CC[C@H](c2cc(Nc3ccc4c(c3)oc(=O)n4C)n[nH]2)C1 [Example 34, (1R,3S)-3-{5-[(3-methyl-2-oxobenzo[d][1,3]oxazol-6-yl)amino]-2H-pyrazol-3-yl}cyclopentyl (prop-2-ylamino)methanoate] | > 7.30 | 6.00 to 6.30 | 500 to 1000 | ≥ 1000 | 6.30 to 7.30 | > 7.30 |  | 
12 | CC(C)NC(=O)O[C@H]1CC[C@@H](c2cc(Nc3nccc4c3CCS4(=O)=O)n[nH]2)CC1 [Example 69, (1s,4s)-4-{5-[(1,1-dioxo-2,3-dihydro-1λ^6-thieno[3,2-c]pyridin-4-yl)amino]-1H-pyrazol-3-yl}cyclohexyl (prop-2-ylamino)methanoate] | > 7.30 | < 6.00 | 500 to 1000 | ≥ 1000 | 6.30 to 7.30 | > 7.30 |  | 
13 | CC(C)NC(=O)O[C@@H]1CC[C@H](c2cc(Nc3ccc4c(c3)CS(=O)(=O)N4)n[nH]2)C1 [Example 45, (1R,3S)-3-{5-[(2,2-dioxo-1,3-dihydro-2λ6-benzo[c][1,2]thiazol-5-yl)amino]-2H-pyrazol-3-yl}cyclopentyl (prop-2-ylamino)methanoate] | > 7.30 | < 6.00 | ≥ 1000 | ≥ 1000 | > 7.30 | > 7.30 |  | 
14 | CC(C)NC(=O)O[C@@H]1CC[C@H](c2cc(Nc3cccc4c3CNS4(=O)=O)n[nH]2)C1 [Example 46, (1R,3S)-3-(3-((1,1-dioxido-2,3-dihydrobenzo[d]isothiazol-4-yl)amino)-1H-pyrazol-5-yl)cyclopentyl isopropylcarbamate] | > 7.30 | 6.30 to 7.30 | ≤ 500 | 500 to 1000 | 6.30 to 7.30 | > 7.30 |  | 
15 | CC(C)NC(=O)O[C@H]1CC[C@@H](c2cc(Nc3ccc4c(c3)CNS4(=O)=O)n[nH]2)CC1 [Example 7, (1s,4s)-4-{3-[(1,1-dioxo-2,3-dihydro-1λ^6,2-benzothiazol-5-yl)amino]-1H-pyrazol-5-yl}cyclohexyl N-(propan-2-yl)carbamate] | > 7.30 | < 6.00 |  |  | 6.30 to 7.30 | > 7.30 | ≤ 500 | ≥ 1000
16 | CC(C)NC(=O)O[C@H]1CC[C@@H](c2cc(Nc3ccc4c(c3)S(=O)(=O)NC4)n[nH]2)CC1 [Example 37, (1s,4s)-4-(3-((1,1-dioxido-2,3-dihydrobenzo[d]isothiazol-6-yl)amino)-1H-pyrazol-5-yl)cyclohexyl isopropylcarbamate] | > 7.30 | < 6.00 | ≥ 1000 | ≥ 1000 | 6.30 to 7.30 | > 7.30 |  | 
17 | CC(C)NC(=O)O[C@@H]1CC[C@H](c2cc(Nc3ccc4c(c3)C(=O)NC4=O)n[nH]2)C1 [Example 4, (1R,3S)-3-(3-((1,3-dioxoisoindolin-5-yl)amino)-1H-pyrazol-5-yl)cyclopentyl isopropylcarbamate] | > 7.30 | 6.30 to 7.30 | 500 to 1000 | ≥ 1000 | 6.30 to 7.30 | > 7.30 |  | 
